Data from US9096524B2, “Anthelmintic agents and their use” (Intervet International B.V., priority 2009, dated 2015).
Like-named read-outs stand apart in the source and are kept apart here.

System: A. galli (intestinal roundworm of chicken) larval stage 3; O. dentatum (nodular worm of swine) larval stages 3 and 4
Test: Activity against Ascaridia galli and Oesophagostomum dentatum larvae in vitro (minimum effective concentration)
Format: cell-based
[1] = in vitro, one or more of A. galli L3, O. dentatum L3, L4, threshold 7 μM, read-out: MEC (minimum effective concentration) against one or more of the tested nematodes
[2] = in vitro, one or more of A. galli L3, O. dentatum L3, L4, threshold 1 μM, read-out: MEC (minimum effective concentration) against one or more of the tested nematodes
[3] = in vitro, two or more of A. galli L3, O. dentatum L3, L4, threshold 1 μM, read-out: MEC (minimum effective concentration) against two or more of the tested nematodes
[4] = read-out: MEC (minimum effective concentration) against two or more of the tested nematodes, in vitro, two or more of A. galli L3, O. dentatum L3, L4, threshold 1 μM

| SMILES | minimal effective concentration [1] | minimal effective concentration [2] | minimal effective concentration [3] | also measured |
| --- | --- | --- | --- | --- |
| CCCc1ccc(C2CCN(CCC(=O)N3CCC(Nc4ccc([N+](=O)[O-])c(OC)c4)CC3)CC2)cc1 [Example 379] | < 7 µM | – | – | – |
| COc1cc(NC2CCN(C(=O)CCN3CCC(c4ccc(C(C)(C)C)cc4)CC3)CC2)ccc1[N+](=O)[O-] [Example 380] | < 7 µM | < 1 µM | – | – |
| COc1cc(NC2CCN(C(=O)CCN3CCN(c4ccc(C(F)(F)F)cc4)CC3)CC2)ccc1[N+](=O)[O-] [Example 382] | < 7 µM | – | < 1 µM | – |
| COc1cc(NC2CCN(C(=O)CCN3CCN(c4ccc(Cl)c(C(F)(F)F)c4)CC3)CC2)ccc1[N+](=O)[O-] [Example 384] | < 7 µM | – | – | – |
| CCCc1ccc(C2CCN(CCC(=O)N3CCC(Nc4ccc([N+](=O)[O-])c(OCC)c4)CC3)CC2)cc1 [Example 399] | < 7 µM | – | – | – |
| CCOc1cc(NC2CCN(C(=O)CCN3CCC(c4ccc(C(C)(C)C)cc4)CC3)CC2)ccc1[N+](=O)[O-] [Example 400] | < 7 µM | < 1 µM | – | – |
| CCOc1cc(NC2CCN(C(=O)CCN3CCN(c4ccc(C(F)(F)F)cc4)CC3)CC2)ccc1[N+](=O)[O-] [Example 402] | < 7 µM | < 1 µM | < 1 µM | – |
| CCOc1cc(NC2CCN(C(=O)CCN3CCN(c4ccc(Cl)cc4)CC3)CC2)ccc1[N+](=O)[O-] [Example 405] | < 7 µM | – | – | – |
| CCOc1cc(NC2CCN(C(=O)CCN3CCN(c4ccc(OCc5ccccc5)cc4)CC3)CC2)ccc1[N+](=O)[O-] [Example 407] | < 7 µM | – | – | – |
| CCOc1cc(NC2CCN(C(=O)CCN3CCN(c4ccc(OC)cc4)CC3)CC2)ccc1[N+](=O)[O-] [Example 408] | < 7 µM | – | – | – |
| CCOc1cc(NC2CCN(C(=O)CCN3CCN(c4ccc(Cl)cc4F)CC3)CC2)ccc1[N+](=O)[O-] [Example 410] | < 7 µM | – | – | – |
| O=C(CCN1CCN(c2ccc(Cl)cc2)CC1)N1CCC(Oc2ccc([N+](=O)[O-])c(C(F)(F)F)c2)CC1 [Example 421] | – | – | < 1 µM | – |
| O=C(CCN1CCN(c2ccc(OCc3ccccc3)cc2)CC1)N1CCC(Oc2ccc([N+](=O)[O-])c(C(F)(F)F)c2)CC1 [Example 423] | – | – | < 1 µM | – |
| COc1ccc(N2CCN(CCC(=O)N3CCC(Oc4ccc([N+](=O)[O-])c(C(F)(F)F)c4)CC3)CC2)cc1OC [Example 424] | – | – | < 1 µM | – |
| O=C(CCN1CCN(c2ccc(Cl)cc2)CC1)N1CCC(Oc2ccc([N+](=O)[O-])c(C(F)(F)F)c2)CC1 [Example 433] | – | < 1 µM | – | – |
| COc1ccc(C2CCN(CCC(=O)N3CCC(Oc4ccc([N+](=O)[O-])c(C(F)(F)F)c4)CC3)CC2)cc1 [Example 435] | – | – | < 1 µM | – |
| O=C(CCN1CCC(c2ccc(F)c(F)c2)CC1)N1CCC(Oc2ccc([N+](=O)[O-])c(C(F)(F)F)c2)CC1 [Example 436] | – | – | < 1 µM | – |
| O=C(CCN1CCC(c2ccc(C(F)(F)F)cc2)CC1)N1CCC(Oc2ccc([N+](=O)[O-])c(C(F)(F)F)c2)CC1 [Example 438] | – | – | < 1 µM | – |
| O=C(CCN1CCC(c2ccc(-c3ccccc3)cc2)CC1)N1CCC(Oc2ccc([N+](=O)[O-])c(C(F)(F)F)c2)CC1 [Example 442] | < 7 µM | – | – | – |

| SMILES | minimal effective concentration [1] | minimal effective concentration [2] | minimal effective concentration [3] | also measured |
| --- | --- | --- | --- | --- |
| Cn1nnc(-c2ccc(NC3CCN(C(=O)CCN4CCN(c5ccc(Cl)cc5)CC4)CC3)cc2)n1 [Example 445] | < 7 µM | < 1 µM | < 1 µM | – |
| CC(C)COc1cc(NC2CCN(C(=O)CCN3CCC(c4ccc(C(C)(C)C)cc4)CC3)CC2)ccc1[N+](=O)[O-] [Example 457] | < 7 µM | – | – | – |
| CC(C)COc1cc(NC2CCN(C(=O)CCN3CCN(c4ccc(C(F)(F)F)cc4)CC3)CC2)ccc1[N+](=O)[O-] [Example 459] | < 7 µM | < 1 µM | – | – |
| CC(C)COc1cc(NC2CCN(C(=O)CCN3CCN(c4ccc(F)cc4F)CC3)CC2)ccc1[N+](=O)[O-] [Example 469] | < 7 µM | – | – | – |
| COc1cc(OC2CCN(C(=O)CCN3CCN(c4ccc(Cl)cc4F)CC3)CC2)ccc1[N+](=O)[O-] [Example 476] | < 7 µM | – | – | – |
| COc1cc(OC2CCN(C(=O)CCN3CCN(c4ccc(F)cc4F)CC3)CC2)ccc1[N+](=O)[O-] [Example 477] | < 7 µM | – | – | – |
| COc1cc(OC2CCN(C(=O)CCN3CCN(c4ccc(C(F)(F)F)cc4)CC3)CC2)ccc1[N+](=O)[O-] [Example 479] | < 7 µM | – | – | – |
| COc1ccc(C2CCN(CCC(=O)N3CCC(Oc4ccc([N+](=O)[O-])c(OC)c4)CC3)CC2)cc1 [Example 484] | – | < 1 µM | – | – |
| CCCc1ccc(C2CCN(CCC(=O)N3CCC(Oc4ccc([N+](=O)[O-])c(OC)c4)CC3)CC2)cc1 [Example 489] | – | < 1 µM | – | – |
| CCOc1cc(OC2CCN(C(=O)CCN3CCN(c4ccc(OC)c(OC)c4)CC3)CC2)ccc1[N+](=O)[O-] [Example 495] | < 7 µM | < 1 µM | < 1 µM | – |
| CCOc1cc(OC2CCN(C(=O)CCN3CCN(c4ccc(OCc5ccc(C(F)(F)F)cc5)cc4)CC3)CC2)ccc1[N+](=O)[O-] [Example 497] | < 7 µM | – | – | – |
| CCOc1cc(OC2CCN(C(=O)CCN3CCN(c4ccc(Cl)cc4F)CC3)CC2)ccc1[N+](=O)[O-] [Example 498] | < 7 µM | – | – | – |
| CCOc1cc(OC2CCN(C(=O)CCN3CCN(c4ccc(C(C)(C)C)cc4)CC3)CC2)ccc1[N+](=O)[O-] [Example 502] | < 7 µM | < 1 µM | – | – |
| CCOc1cc(OC2CCN(C(=O)CCN3CCC(c4ccc(C(C)(C)C)cc4)CC3)CC2)ccc1[N+](=O)[O-] [Example 509] | – | < 1 µM | – | – |
| CC(C)COc1cc(OC2CCN(C(=O)CCN3CCN(c4ccc(Cl)cc4)CC3)CC2)ccc1[N+](=O)[O-] [Example 512] | < 7 µM | – | – | – |
| COc1ccc(N2CCN(CCC(=O)N3CCC(Oc4ccc([N+](=O)[O-])c(OCC(C)C)c4)CC3)CC2)cc1OC [Example 515] | < 7 µM | – | – | – |
| COc1ccc(N2CCN(CCC(=O)N3CCC(Oc4ccc([N+](=O)[O-])c(OCC(C)C)c4)CC3)CC2)cc1 [Example 516] | < 7 µM | < 1 µM | – | – |
| CC(C)COc1cc(OC2CCN(C(=O)CCN3CCN(c4ccc(Cl)cc4F)CC3)CC2)ccc1[N+](=O)[O-] [Example 519] | < 7 µM | – | – | – |
| CC(C)COc1cc(OC2CCN(C(=O)CCN3CCN(c4ccc(F)cc4F)CC3)CC2)ccc1[N+](=O)[O-] [Example 520] | < 7 µM | – | – | – |

| SMILES | minimal effective concentration [1] | minimal effective concentration [2] | minimal effective concentration [3] | also measured |
| --- | --- | --- | --- | --- |
| CC(C)(C)c1ccc(N2CCN(CCC(=O)N3CCC(Nc4ccc([N+](=O)[O-])nc4)CC3)CC2)cc1 [Example 550] | – | < 1 µM | – | – |
| CC(C)(C)c1ccc(N2CCN(CCC(=O)N3CCC(Nc4ccc([N+](=O)[O-])cn4)CC3)CC2)cc1 [Example 551] | – | < 1 µM | < 1 µM | – |
| O=C(CCCN1CCN(c2ccc(Cl)cc2)CC1)N1CCC(Nc2ccc([N+](=O)[O-])cn2)CC1 [Example 559] | – | – | < 1 µM | – |
| Cc1cc(NC2CCN(C(=O)CCN3CCN(C(=O)c4cccc(C(F)(F)F)c4)CC3)CC2)ccc1[N+](=O)[O-] [Example 561] | – | – | < 1 µM | – |
| CCOc1cc(OC2CCN(C(=O)CCN3CCN(c4ccc(-c5ccccc5)cc4)CC3)CC2)ccc1[N+](=O)[O-] [Example 578] | – | – | < 1 µM | – |
| CC(C)(CN1CCN(c2ccc(C(F)(F)F)cc2)CC1)C(=O)N1CCC(Nc2ccc([N+](=O)[O-])c(C(F)(F)F)c2)CC1 [Example 585] | – | – | < 1 µM | – |
| CC(N1CCN(c2ccc(Cl)cc2)CC1)C(C)(C)C(=O)N1CCC(Nc2ccc([N+](=O)[O-])c(C(F)(F)F)c2)CC1 (stereo not drawn) [Example 586] | – | – | < 1 µM | – |
| CC(C(=O)N1CCC(Nc2ccc([N+](=O)[O-])c(C(F)(F)F)c2)CC1)C(C)N1CCN(c2ccc(C(C)(C)C)cc2)CC1 (stereo not drawn) [Example 588] | – | – | – | minimal effective concentration [4]: < 1 µM |
| CC(C)(C)c1ccc(N2CCN(CCCC(=O)N3CCC(Nc4ccnc(C(F)(F)F)c4)CC3)CC2)cc1 [Example 591] | – | – | < 1 µM | – |
| O=C(CCN1CCN(c2cccc(Cl)c2)CC1)NC1CCN(c2ccc([N+](=O)[O-])c(C(F)(F)F)c2)CC1 [Example 594] | – | < 1 µM | – | – |
| O=C(CCN1CCN(c2ccc(C(F)(F)F)cc2)CC1)NC1CCN(c2ccc([N+](=O)[O-])c(C(F)(F)F)c2)CC1 [Example 596] | – | < 1 µM | – | – |
| N#Cc1ccc(N2CCC(NC(=O)CCN3CCN(c4cccc(Cl)c4)CC3)CC2)cc1C(F)(F)F [Example 609] | – | < 1 µM | – | – |
| N#Cc1ccc(N2CCC(NC(=O)CCN3CCN(c4ccc(C(F)(F)F)cc4)CC3)CC2)cc1C(F)(F)F [Example 611] | – | – | – | minimal effective concentration (read-out: MEC (minimum effective concentration) against one or more of the tested nematodes, in vitro, one or more of A. galli L3, O. dentatum L3, L4, threshold 1 μM): < 1 µM |
| N#Cc1ccc(N2CCC(NC(=O)CCCN3CCN(c4cccc(Cl)c4)CC3)CC2)cc1C(F)(F)F [Example 617] | – | – | < 1 µM | – |
| N#Cc1ccc(N2CCC(NC(=O)CCCN3CCN(c4ccc(C(F)(F)F)cc4)CC3)CC2)cc1C(F)(F)F [Example 619] | – | – | – | minimal effective concentration [4]: < 1 µM |
| O=C(CCN1CCN(c2cccc(Cl)c2)CC1)NC1CCN(c2ccc(C(F)(F)F)cn2)CC1 [Example 640] | – | < 1 µM | – | – |
| O=C(CCCN1CCN(c2cccc(Cl)c2)CC1)NC1CCN(c2ccc(C(F)(F)F)cn2)CC1 [Example 648] | – | < 1 µM | – | – |
| CC(CN1CCN(c2ccc(C(F)(F)F)cc2)CC1)C(=O)N1CCC(Nc2ccc(SC(F)(F)F)cc2)CC1 (stereo not drawn) [Example 661] | – | – | – | minimal effective concentration [4]: < 1 µM |
